According to US20100029949A1, “Activator for Peroxisome Proliferator Activated Receptor” (priority 2005, published 2010):

How the values were obtained:
Format in all cases: cell-based
PPAR α = target: T1, PPAR α (Homo sapiens, UniProt Q07869); assay: GAL4-hPPAR α (LBD) luciferase reporter transactivation in CV-1 cells; conditions: test compound 10^−6 M, control GW-590735 10^−6 M = 100%
T1 construct: A receptor expression plasmid (pSG5-GAL4-hPPAR α or γ or δ (LBD)); expressed in transfected cells; host or cells: CV-1 cells (ATCC)
T1 sequence (Q07869 239-466 limits assumed): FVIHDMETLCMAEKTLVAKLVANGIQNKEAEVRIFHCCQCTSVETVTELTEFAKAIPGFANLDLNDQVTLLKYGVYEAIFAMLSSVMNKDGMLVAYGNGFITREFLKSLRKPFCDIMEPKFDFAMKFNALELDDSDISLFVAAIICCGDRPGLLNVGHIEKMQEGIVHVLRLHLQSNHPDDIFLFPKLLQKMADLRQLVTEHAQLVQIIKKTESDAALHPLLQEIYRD
Experimental: (§1) A receptor expression plasmid (pSG5-GAL4-hPPAR α or γ or δ (LBD)), a luciferase expression plasmid (pUC8-MH100x-4-TK-Luc) and β-galactosidase expression plasmid (pCMX-β-GAL) (Kliewer, S. A., et. al., (1992) Nature, 358:771-774) are transfected into CV-1 cells (ATCC). After gene transfer utilizing a lipofection reagent DMRIE-C or Lipofectamin 2000 (Invitrogen), it is incubated for 42 hours in the presence of the test compound. Then, the luciferase activity and β-GAL activity are measured on the soluble cells. The luciferase activity is calibrated by the β-GAL activity. A relative ligand activity is calculated for each of the PPAR α, γ and δ under the following conditions: a relative activity of PPAR α is calculated in consideration of a luciferase activity (assigned to 100%) of cells treated with the compound GW-590735 (PPARα-selective agonist); a relative activity of PPAR γ is calculated in consideration of a luciferase activity (assigned to 100%) cells treated with Rosiglitazone; and a relative activity of PPAR δ is calculated in consideration of a luciferase activity (assigned to 100%) of cells treated with GW-501516. See the below-described Example 4.
(§2) The PPARδ activating effects of test compounds (compounds of Examples) were measured by the following method: […]
(§3) After gene transfer utilizing a lipofection reagent DMRIE-C or Lipofectamin 2000 (Invitrogen), it is incubated for approx. 40 hours in the presence of the test compound. Then, the luciferase activity and β-GAL activity are measured on the soluble cells. […] A relative ligand activity is calculated for each of the PPAR α, γ and δ under the following conditions: a relative activity of PPAR α is calculated in consideration of a luciferase activity (assigned to 100%) of cells treated with GW-590735 (PPARα-selective agonist); a relative activity of […] is calculated in consideration of a luciferase activity (assigned to 100%) cells treated with Rosiglitazone; and a relative activity of PPARδ is calculated in consideration of a luciferase activity (assigned to 100%) of cells treated with GW-501516.

PPAR γ = target: T2, PPAR γ (Homo sapiens, UniProt P37231); assay: GAL4-hPPAR γ (LBD) luciferase reporter transactivation in CV-1 cells; conditions: test compound 10^−6 M, control Rosiglitazone 10^−5 M = 100%
T2 construct: A receptor expression plasmid (pSG5-GAL4-hPPAR α or γ or δ (LBD)); expressed in transfected cells; host or cells: CV-1 cells (ATCC)
T2 sequence (P37231 238-503 limits assumed): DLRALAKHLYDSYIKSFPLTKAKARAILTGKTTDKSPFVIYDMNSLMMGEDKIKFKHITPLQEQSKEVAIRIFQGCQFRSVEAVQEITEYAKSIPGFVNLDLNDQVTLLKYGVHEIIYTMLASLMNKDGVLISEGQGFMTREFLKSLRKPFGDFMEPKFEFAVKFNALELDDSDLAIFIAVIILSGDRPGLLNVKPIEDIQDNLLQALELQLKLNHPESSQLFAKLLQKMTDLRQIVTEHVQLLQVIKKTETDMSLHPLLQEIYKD
Experimental: as §1, §2, §3

PPAR δ = target: T3, PPAR δ (Homo sapiens, UniProt Q03181); assay: GAL4-hPPAR δ (LBD) luciferase reporter transactivation in CV-1 cells; conditions: test compound 10^−6 M, control GW-501516 10^−7 M = 100%
T3 construct: A receptor expression plasmid (pSG5-GAL4-hPPAR α or γ or δ (LBD)); expressed in transfected cells; host or cells: CV-1 cells (ATCC)
T3 sequence (Q03181 211-439 limits assumed): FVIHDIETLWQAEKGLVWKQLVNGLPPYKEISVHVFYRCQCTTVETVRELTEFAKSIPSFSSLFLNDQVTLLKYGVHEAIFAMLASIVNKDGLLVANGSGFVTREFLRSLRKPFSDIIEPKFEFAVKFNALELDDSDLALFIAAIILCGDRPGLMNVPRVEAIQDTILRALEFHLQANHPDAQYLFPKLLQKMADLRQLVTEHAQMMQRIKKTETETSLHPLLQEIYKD
Experimental: as §1, §2, §3

PPAR α activity: relative value (%) of the test compound to 100% of the control compound (PPAR α) [%] | PPAR γ activity: relative value (%) of the test compound to 100% of the control compound (PPAR γ) [%] | PPAR δ activity: relative value (%) of the test compound to 100% of the control compound (PPAR δ) [%] | SMILES
62.7 | 5.4 | 84.7 | Cc1cc2c(CCc3cc(-c4ccc(C(F)(F)F)cc4)nn3C(C)C)noc2cc1OC(C)(C)C(=O)O [Example 1, 2-[3-[2-[1-Isopropyl-3-(4-trifluoromethylphenyl)-1H-pyrazol-5-yl]ethyl]-5-methylbenzisoxazol-6-yloxy]-2-methylpropionic acid]
103.0 | 13.4 | 94.4 | Cc1cc2c(CCc3cc(-c4ccc(C(F)(F)F)cc4)nn3C(C)C)noc2cc1OCC(=O)O [Example 2, 3-[2-[1-Isopropyl-3-(4-trifluoromethylphenyl)-1H-pyrazol-5-yl]ethyl]-5-methylbenzisoxazol-6-yloxyacetic acid]
0.2 | 0.3 | 87.8 | Cc1cc2c(CCc3cn(-c4ccc(C(F)(F)F)cc4)nc3C(C)C)noc2cc1OC(C)(C)C(=O)O [Example 3, 2-[3-[2-[3-Isopropyl-1-(4-trifluoromethylphenyl)-1H-pyrazol-4-yl]ethyl]-5-methylbenzisoxazol-6-yloxy]-2-methylpropionic acid]
